One data set has as its system F11 cells. The experiment in a line: Cell viability assay in F11 neuronal cells. The note with it: 24 h, 5–20 µM.
The test system of the next data set is COX2. The experiment in a line: COX2 protein western blotting in F11-derived neurons. The conditions noted are these: DF2726A 1 µM + oxaliplatin 20 µM, 24 h. The format is cell-based. On the procedure: (§1) Following neuronal differentiation, neurons were treated for 24 h with DF2726A (1 μM final concentration), oxaliplatin (Sigma-Aldrich; 20 µM final concentration), or the combination of the two molecules.
(§2) Control and treated cells were collected and lysed in ice-cold RIPA buffer (PBS pH 7.4 containing 0.5% sodium deoxycolate, 1% Igepal, 0.1% SDS, 5 mM EDTA, 1% protease and phosphatase inhibitor cocktails; Sigma-Aldrich) as described in[22],[33]. Protein lysates (30 μg) were separated on 8–12% SDS-polyacrilamide gel and electroblotted onto polyvinyldifluoride membrane (PVDF; Sigma-Aldrich). Nonspecific binding sites were blocked by 5% non-fat dry milk (Bio-Rad Laboratories, Hercules, CA, USA) in Tris buffered saline (TBS: 20 mM Tris- HCl, pH 7.4, containing 150 mM NaCl) for 30 min at RT. […] The relative densities of immunoreactive bands were determined and normalized HRP-conjugated β-actin, using ImageJ software. […]
Background: Immunoblotting shows a protein as a band on a membrane.

A further data set relates to p-ERK1/2. Put plainly: p-ERK1/2 western blotting in F11-derived neurons. It is filed as cell-based. The conditions noted are these: DF2726A 1 µM + oxaliplatin 20 µM, 24 h. On the procedure:
as §1, §2

For a further data set, the target named is T1, human COX2 (Homo sapiens, UniProt P35354).
T1 construct: host or cells: Sf-9
Put plainly: COX2 assay, PGE2 formation from arachidonic acid, recombinant enzyme. It is filed as biochemical. As for the experimental part:
Protein binding in human, dog and rat plasma […]
in DMSO at a final concentration of 2 mM. […]
plasma to obtain a final concentration of 10 µM. Human, dog and rat plasma (200 µL) in triplicate […]
vials for LC-MS/MS analysis. […]
(§3) mM Tris-HCl (pH 8.0), 1.98 mM phenol and 1.02 µM hematine. Thereafter, the reaction was initiated by adding 4 µM (COX1) or 2 µM (COX2) of arachidonic acid and the mixture was incubated for 5 min at RT. For basal control measurements, arachidonic acid was omitted from the reaction mixture. Following incubation, t he reaction was stopped by the addition of 1 M HCl then 1 M Tris/HCl (pH 8.0) followed by cooling to 4°C.
(§4) The fluorescence acceptor (d2 labeled PGE2) and the fluorescence donor (anti -PGE2 antibody labeled with europium Cryptate) were then added. After 120 min, the fluorescence transfer corresponding to the amount of residual PGE2 was measured at λex=337 nm, λem=620 nm and λem=665 nm using a microplate reader (Envision, Perkin Elmer). The enzyme activity was determined by dividing the signal measured at 665 nm by that measured at 620 nm (ratio). The results were expressed as a percent age inhibition of the control enzyme activity. The standard inhibitory reference compound was Diclofenac, which was tested in each experiment at several concentrations to obtain an inhibition curve from which its IC50 value was calculated. […]

For data set [1], the target named is CYP 1A2 (Homo sapiens, UniProt P05177). The format is in vitro ADME. The source says: (§5) Table 1 Physicochemical and in Vitro ADME Properties of DF2726A. | column: DF2726A
In data set [2] the test system is CYP 1A2. The format is in vitro ADME.
Description: as §5

In the next data set the test system is acetylated α-tubulin. Put plainly: Acetylated α-tubulin immunofluorescence of nerve fibres in paw sections of oxaliplatin rats. It is filed as in vivo, male Wistar rats. The note with it: 30 mg/kg os, rat paw sections. On the procedure:
Animals were sacrificed and a biopsy (3 mm) was taken from pad of the right hind paw. Biopsies were immediately placed in Zamboni’s fixative, where they were left at 4 °C. Tissues were then transferred to 20% sucrose for at least 24 h and used for immunohistochemistry analysis. Specimens were frozen in Optimal Cutting Temperature compound (OCT, Sakura Finetek Inc, CA, USA) and sliced into 20 μm thick serial coronal sections by cryostat AMES LAB-TEK (Westmont, Illinois, USA).
In brief, sections were blocked with phosphate buffer saline (PBS) containing 10% (Bovine Serum Albumin) and 0.3% Tween-20, for 1 h at RT and incubated, overnight at 4 °C, with the primary antibodies: IL-8 (mouse, 1:25, R&D Systems Inc. Minneapolis, MN, USA), PGP9.5 (rabbit, 1:1000, AbD Serotec, NC, USA), acetylated alpha tubulin (mouse, 1:250, Abcam Cambridge, MA, USA) and collagen IV (goat, 1:25, Southern Biotech, Birmingham, AL, USA). Sections were then rinsed in PBS several times before incubation for 2 h at RT with secondary antibodies, donkey AlexaFluor 488 anti-rabbit or donkey AlexaFluor 633 (1:2000), goat anti-mouse conjugated with Alexafluor 488 (1:2000; Life Technologies, Camarillo, CA, USA). […]

The target of the next data set is T2, hERG channel (Homo sapiens, UniProt Q12809).
T2 construct: host or cells: CHO-K1
Put plainly: hERG inhibition, automated patch clamp (QPatch 16) in CHO-K1 cells. It is filed as cell-based. The note with it: tested at 0.01-1 mM. On the procedure:
as §3, §4
The human ether-a-go-go related gene (hERG) inhibition assay was performed by Eurofins Panlabs Inc, USA. […] Single cell ionic currents were measured in the automated patch clamp configuration at room temperature by using QPatch 16 in strument. […]

The next data set is described as follows: Metabolic stability, dog. The format is in vitro ADME. The conditions noted are these: Test conc: 2.5 µM.
Description: as §5

“Also recorded” adds a separate entry of the source.

T1 sequence (P35354 18-604): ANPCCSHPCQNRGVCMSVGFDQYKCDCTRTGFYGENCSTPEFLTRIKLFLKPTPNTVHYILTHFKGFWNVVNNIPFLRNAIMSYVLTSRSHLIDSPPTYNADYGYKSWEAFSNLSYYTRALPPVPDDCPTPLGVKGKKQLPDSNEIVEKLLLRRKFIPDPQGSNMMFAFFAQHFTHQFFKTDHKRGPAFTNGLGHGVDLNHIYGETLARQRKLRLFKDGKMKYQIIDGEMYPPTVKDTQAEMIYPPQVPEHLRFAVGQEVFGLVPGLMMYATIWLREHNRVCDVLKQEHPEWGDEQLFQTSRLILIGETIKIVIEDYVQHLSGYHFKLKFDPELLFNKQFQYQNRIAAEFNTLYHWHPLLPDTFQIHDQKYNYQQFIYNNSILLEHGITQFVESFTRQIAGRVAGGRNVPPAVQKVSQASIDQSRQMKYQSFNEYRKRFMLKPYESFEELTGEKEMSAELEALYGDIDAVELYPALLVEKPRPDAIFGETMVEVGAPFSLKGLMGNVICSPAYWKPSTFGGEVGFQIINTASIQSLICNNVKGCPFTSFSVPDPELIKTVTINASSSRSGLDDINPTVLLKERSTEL
T2 sequence (Q12809 whole entry): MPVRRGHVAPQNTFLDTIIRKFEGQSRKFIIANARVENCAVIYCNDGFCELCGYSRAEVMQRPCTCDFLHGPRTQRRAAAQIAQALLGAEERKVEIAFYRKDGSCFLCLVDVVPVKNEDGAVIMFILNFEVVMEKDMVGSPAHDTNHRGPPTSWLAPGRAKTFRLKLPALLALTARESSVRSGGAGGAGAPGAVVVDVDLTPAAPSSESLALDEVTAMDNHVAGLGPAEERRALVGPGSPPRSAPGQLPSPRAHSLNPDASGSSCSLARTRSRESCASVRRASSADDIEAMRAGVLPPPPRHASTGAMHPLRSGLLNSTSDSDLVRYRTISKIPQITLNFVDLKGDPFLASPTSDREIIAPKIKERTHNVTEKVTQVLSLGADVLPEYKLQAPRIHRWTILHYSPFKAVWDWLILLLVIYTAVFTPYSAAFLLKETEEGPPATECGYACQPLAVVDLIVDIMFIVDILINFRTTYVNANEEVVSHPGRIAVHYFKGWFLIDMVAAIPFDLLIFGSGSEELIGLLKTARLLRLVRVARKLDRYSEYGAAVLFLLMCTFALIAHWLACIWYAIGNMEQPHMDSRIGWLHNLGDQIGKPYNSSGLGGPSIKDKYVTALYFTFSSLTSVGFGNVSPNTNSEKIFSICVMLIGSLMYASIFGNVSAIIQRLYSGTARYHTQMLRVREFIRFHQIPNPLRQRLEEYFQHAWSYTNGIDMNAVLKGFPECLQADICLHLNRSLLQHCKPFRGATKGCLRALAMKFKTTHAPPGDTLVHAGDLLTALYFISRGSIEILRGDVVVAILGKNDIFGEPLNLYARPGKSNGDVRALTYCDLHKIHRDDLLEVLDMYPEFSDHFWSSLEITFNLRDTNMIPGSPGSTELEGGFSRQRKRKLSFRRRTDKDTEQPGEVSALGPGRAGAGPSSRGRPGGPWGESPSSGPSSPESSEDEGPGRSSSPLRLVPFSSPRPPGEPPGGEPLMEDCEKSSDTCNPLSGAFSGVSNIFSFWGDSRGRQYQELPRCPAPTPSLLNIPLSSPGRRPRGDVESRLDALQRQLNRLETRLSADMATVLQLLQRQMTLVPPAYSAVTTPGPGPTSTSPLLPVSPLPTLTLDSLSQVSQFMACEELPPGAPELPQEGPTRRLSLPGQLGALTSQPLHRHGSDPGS
Chain of CYP 1A2 (Homo sapiens, UniProt P05177) (P05177 whole entry): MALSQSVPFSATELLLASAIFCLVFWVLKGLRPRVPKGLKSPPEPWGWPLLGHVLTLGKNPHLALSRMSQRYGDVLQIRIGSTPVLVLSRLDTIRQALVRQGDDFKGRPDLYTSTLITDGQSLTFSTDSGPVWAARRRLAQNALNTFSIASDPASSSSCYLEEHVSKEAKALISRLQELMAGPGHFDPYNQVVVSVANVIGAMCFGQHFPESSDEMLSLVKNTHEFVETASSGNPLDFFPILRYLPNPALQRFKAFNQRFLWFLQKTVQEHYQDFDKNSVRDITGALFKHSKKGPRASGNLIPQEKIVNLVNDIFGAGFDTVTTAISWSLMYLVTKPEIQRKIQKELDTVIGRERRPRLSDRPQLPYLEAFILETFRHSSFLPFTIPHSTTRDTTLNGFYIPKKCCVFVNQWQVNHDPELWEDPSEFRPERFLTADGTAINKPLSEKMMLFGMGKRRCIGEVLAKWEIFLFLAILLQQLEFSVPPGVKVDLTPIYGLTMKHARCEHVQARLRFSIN
Description for F11 cells: For the subsequent experiments, DF2726A was used at a final concentration of 1 µM, and oxaliplatin at a final concentration of 20 µM. For comparison, paclitaxel alone or in combination with DF2726A was also used.
F11 hybridoma cells (ECACC 08062601), chosen as a model of DRG neurons[22],[32],[33] were cultivated in DMEM (Euroclone, Milan, Italy) supplemented with 10% FBS (Sigma-Aldrich, St. Louis, MO, USA), 1% penicillin/streptomycin (Euroclone, MI, Italy) and 1% glutamine (Euroclone) at 37 °C, in humidified 95% air with 5% CO2 atmosphere. For all the experiments, cells were used at 18th passage.
Supplementary Fig. 2: Effect of DF2726A, oxaliplatin and paclitaxel treatment on neuronal cell
viability. Cell viability assay of F11 cells after treatment at different concentrations of DF 2726A
(DF; 1-20 µM), oxaliplatin (OXA, 5-60 µM), paclitaxel (PAC, 5-20 nM) and the combination of 20
µM oxaliplatin+DF2726A (Oxa+DF) and paclitaxel+DF2726A (PAC+DF) at 24 h. Data are means

Regarding `CC(C)(C(=O)O)c1ccc(Nc2nc(C(F)(F)F)cs2)cc1` [DF2726A], in the data set on F11 cells, the Neuronal cell viability result is “ineffective in modulating neuronal cell viability”. Also, in the data set with COX2, the “COX2 expression levels, oxaliplatin-treated neurons” value is recorded as “comparable to the control”. The “p-ERK1/2 protein levels, oxaliplatin-treated neurons” value in the data set on p-ERK1/2 is recorded as “comparable to those of control cells”. In addition, the “COX 2 Inhibition (50 µM)” value on human COX2 is recorded as “did not inhibit; also recorded: No Inhibition observed”. For the same molecule, the IC50 (in general, the midpoint of a concentration-inhibition curve) at CYP 1A2 [1] was more than 30 µM; with CYP 1A2 [2], more than 100 µM; against hERG channel, more than 1000 µM. The “Acetylated α-tubulin levels in nerve fibres of oxaliplatin rats” value in the data set on acetylated α-tubulin is given as “completely restored control conditions”. Besides, the Metabolic stability dog in the data set “Metabolic stability, dog” is listed as 7.2 µL/min/10^6 cells.

Values taken from paper PMC6692352, “DF2726A, a new IL-8 signalling inhibitor, is able to counteract chemotherapy-induced neuropathic pain” (Scientific Reports, 2019).
